Laboratory results published in patent US9775902B2, “Compounds and methods for treatment of stroke” (FIBROGEN, INC, priority 2006, dated 2017).
Read-outs that look alike come from different tables or passages of the source.

Legend:
[1] = system: vascular endothelial growth factor (VEGF); test: Brain VEGF gene expression in mice after intravenous injection; assay type: in vivo, Swiss Webster mice; settings: 20 mg/kg i.v., four hours, quantitative real time PCR normalized to 18s RNA
Procedure: The effect of compounds of the present invention on regulation of cytoprotective and neuroprotective gene expression in brain was evaluated. In one series of experiments, male Swiss Webster mice were administered by intravenous injection various compounds of the present invention. Animals treated by intravenous injection received a 6 ml/kg volume of either 5% Dextrose with an equimolar amount of Meglumine (vehicle control) or 20 mg/kg of a compound of the present invention in 5% dextrose with an equimolar amount of Meglumine Animals were euthanized four hours later and their brains placed in RNAlater (Ambion, Austin Tex.) for subsequent analysis. Tissues were homogenized in Trizol (Invitrogen, Carlsbad Calif.) using 5-mm steel beads in a Mixer Mill (Qiagen, Valencia Calif.). RNA was isolated from the Trizol solution and then further purified using RNeasy kit (Qiagen). cDNA was prepared from […] total RNA using Omniscript reverse transcriptase (Qiagen) and random hexamers. Quantitative real time PCR was performed in a 7900HT instrument (Applied Biosystems, Foster City Calif.) using TaqMan Assays-on-Demand (Applied Biosystems). Gene expression levels were normalized to that of 18s RNA.

erythropoietin [2] = test: Plasma EPO in mice after intravenous injection; assay type: in vivo, Swiss Webster mice; settings: mouse plasma, 20 mg/kg i.v., four hours after injection; for fold induction at 20 mg/kg: iv, 4 h, read-out: EPO Fold Increase
Summary of the method: (§1)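 Male Swiss Webster mice (29-34 g) received 20 mg/kg compound or vehicle by tail-vein injection in 5% dextrose with equimolar NaOH or meglumine. Plasma was collected 4 h later, and EPO and VEGF were measured by ELISA.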

VEGF [3] = test: Plasma VEGF in mice after intravenous injection; assay type: in vivo, Swiss Webster mice; settings: mouse plasma, 20 mg/kg i.v., four hours after injection; for fold induction at 20 mg/kg: iv, 4 h, read-out: VEGF Fold Increase
Summary of the method: as §1

[4] = system: vascular endothelial growth factor (VEGF); test: VEGF expression in Kelly neuroblastoma cells; assay type: cell-based; settings: for VEGF: conditioned media after overnight incubation
Summary of the method: (§2)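 Kelly neuroblastoma cells treated overnight with compound, 1% DMSO as negative control. EPO and VEGF secreted into conditioned media measured by QUANTIKINE immunoassay.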

erythropoietin (EPO) [5] = test: EPO expression in Hep3B cells (QUANTIKINE immunoassay of conditioned media); assay type: cell-based, Human; settings: for Fold Increase Over Control: EPO, vs 1% DMSO control; for EPO: conditioned media after overnight incubation with compound
Summary of the method: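 Confluent Hep3B cells were switched to OPTI-MEM for about 24 h (20% O2, 5% CO2, 37 °C), then treated overnight with compound or 1% DMSO vehicle. EPO secreted into the conditioned medium was measured by QUANTIKINE immunoassay.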

VEGF [6] = test: Plasma VEGF in mice after oral gavage; assay type: in vivo, Swiss Webster mice; settings: mouse plasma, oral gavage 6-60 mg/kg, six hours
Procedure: (§3) In another series of experiments, male Swiss Webster mice (29-34 g) were administered various compounds of the present invention via oral gavage using a ball-tipped gavage needle. Animals treated by oral gavage received a 4-10 ml/kg volume of either 0.5% carboxymethyl cellulose with or without 0.1% Polysorbate 80 (vehicle control) or various doses (6-60 mg/kg) of a compound of the present invention in 0.5% CMC, with or without 0.1% Polysorbate 80. Blood samples were collected and tissues were processed as described above. Six hours after injection, the animals were anesthetized and exsanguinated.
(§4) Plasma samples were collected in EDTA and heparin coated microtainer tubes. Plasma samples were assayed for erythropoietin and VEGF using commercially-available ELISA kits purchased from R & D Systems (Minneapolis Minn.).

erythropoietin (EPO) [7] = test: EPO expression in Kelly neuroblastoma cells; assay type: cell-based; settings: for EPO: conditioned media after overnight incubation
Summary of the method: as §2

[8] = system: C57BL/6 mice, permanent occlusion of the MCA; test: Permanent middle cerebral artery occlusion (pMCAO) in C57BL/6 mice: infarct volume and edema; assay type: in vivo; settings: C57BL/6 mice pMCAO, 20-60 mg/kg i.v.; for inhibition in vivo at up to 20 mg/kg: Mus musculus, iv, 24 h, 24 hours after MCA occlusion, read-out: Percent Reduction in Infarct Volume
Procedure: The effect of compounds of the present invention on infarct volume and edema associated with stroke was examined in an animal model of ischemic stroke. In these studies, mice were subjected to permanent occlusion of the middle cerebral artery. Mice were anesthetized intraperitoneally with avertin (0.5 mg/g). Mice were then immobilized in a rodent stereotaxic frame (Kopf Instruments, Tujunga Calif.) and maintained with avertin as needed. The surgical area of the head was swabbed with 70% ethanol and a lateral incision was made between the right orbit and the right ear. […] The distal course of the middle cerebral artery (MCA) was visible through the translucent skull. A small burr-hole craniotomy was performed with a micro-drill (Fine Science Tools, Foster City Calif.). The meninges/dura was removed and the MCA was coagulated by bipolar diathermy. The muscle and soft tissue were replaced and the incision closed with vet-bond adhesive (3M, St. Paul Minn.). These studies were performed in two different mouse models of pMCAO as described below.
In one series of experiments, male C57BL/6 mice (25-35 g) were subjected to permanent occlusion of the MCA as described above. Compounds of the present invention were administered by intravenous injection at various times before or after MCA occlusion (see Table 7). Animals administered compound by intravenous injection received a 6 ml/kg volume of either 5% Dextrose with an equimolar amount of Meglumine (vehicle control) or 20-60 mg/kg of a compound of the present invention in 5% dextrose with an equimolar amount of Meglumine. Body temperature of the animals was maintained by use of a heating pad both during and after surgery. Twenty-four hours after MCA occlusion animals were euthanized with CO2 and their brains removed. After removal, the brain was sliced in 7 coronal sections, each 1 mm thick. The sections were placed rostral side down in a petri dish and stained with 1% Triphenyl tetrazolium chloride for 20 minutes at 37° C. for determination of infarct volume. Brain sections were then digitally photographed and analyzed for changes in infarct volume and extent of edema. Infarct volumes were determined by measuring the infarcted (i.e., non-stained) areas of each brain section and multiplying this value by the section thickness. Extent of edema was determined by the net increase in volume of the ipsilateral cortex compared to that of the contralateral cortex of brain sections.
The effect of compounds of the present invention administered at various times following the onset of stroke was examined further as follows. In these studies, changes in infarct volume were measured using an animal model of stroke when compounds of the present invention were administered from 0 to 8 hours following permanent MCA occlusion. In one series of experiments, male C57BL/6 mice (25-35 g) were subjected to permanent occlusion of the MCA as described above. Compound F was administered to the animals by a single intravenous bolus injection at various times up to 5 hours after MCA occlusion (see Table 8 below). Animals administered compound by intravenous injection received a 6 ml/kg volume of either 5% Dextrose with an equimolar amount of NaOH (vehicle control) or 60 mg/kg of Compound F in 5% dextrose with an equimolar amount of NaOH. Body temperature of the animals was maintained by use of a heating pad both during and after surgery. Changes in infarct volumes were determined as described above.
In another set of experiments, male C57BL/6 mice (25-35 g) were subjected to permanent occlusion of the MCA as described above. Compound F was administered by single intravenous bolus injection at various times up to 8 hours after MCA occlusion (see Table 9 below). Animals administered compound by intravenous injection received a 6 ml/kg volume of either 5% Dextrose with an equimolar amount of Meglumine (vehicle control) or 60 mg/kg of Compound F in 5% dextrose with an equimolar amount of Meglumine. […]

erythropoietin [9] = test: Plasma EPO in mice after oral gavage; assay type: in vivo, Swiss Webster mice; settings: mouse plasma, oral gavage 6-60 mg/kg, six hours
Procedure: as §3, §4

[10] = compound given 4 hr after occlusion

| SMILES | EPO (erythropoietin [2]; mouse EPO ELISA kit (**)) | fold induction at 20 mg/kg (VEGF [3]) | VEGF (VEGF [3]) | VEGF Fold Increase [4] | VEGF [4] | Fold Increase Over Control (erythropoietin (EPO) [5]) | EPO (erythropoietin (EPO) [5]) | VEGF (VEGF [6]) | VEGF Fold Increase (VEGF [6]) | EPO Fold Increase (erythropoietin (EPO) [7]) | EPO (erythropoietin (EPO) [7]) | EPO Fold Increase (erythropoietin [9]) | EPO (erythropoietin [9]; mouse EPO ELISA kit (**)) | inhibition in vivo at up to 20 mg/kg [8, 10] | fold induction at 20 mg/kg (erythropoietin [2]) | further results |
| --- | --- | --- | --- | --- | --- | --- | --- | --- | --- | --- | --- | --- | --- | --- | --- | --- |
| Cc1nc(C(=O)NCC(=O)O)c(O)c2cc(Oc3ccccc3)ccc12 [Compound AA, [(4-Hydroxy-1-methyl-6-phenoxy-isoquinoline-3-carbonyl)-amino]-acetic acid] |  |  |  |  |  |  |  |  |  |  |  |  |  |  |  | VEGF gene expression in brain [1]: 2.1 |
| O=C(O)CNC(=O)c1ncc2cc(Oc3ccc4c(c3)CCO4)ccc2c1O [Compound X, {[7-(2,3-Dihydro-benzofuran-5-yloxy)-4-hydroxy-isoquinoline-3-carbonyl]-amino}-acetic acid] | 183 pg/mL | 2.4 | 48 pg/mL | 3.9 | 5751 pg/mL | 19.0 | 126.2 mIU/ml | 36 pg/mL | 1.16 | 13.76 | 260.1 mIU/ml | 5.86 | 41 pg/mL |  |  | inhibition in vivo at up to 20 mg/kg ([8]; compound given 0 hr): 36% |
| O=C(O)CNC(=O)c1ncc2cc(Sc3ccccc3)ccc2c1O [Compound E, [(4-Hydroxy-7-phenylsulfanyl-isoquinoline-3-carbonyl)-amino]-acetic acid] |  | 1.58 | 66.5 pg/mL | 15.8 | 2495.8 pg/mL | 17.0 | 127.6 mIU/ml | 65.4 pg/mL | 1.63 | 9.0 | 55.8 mIU/ml |  |  | 9% |  | EPO (erythropoietin [2]; human EPO ELISA kit (*)): 122 mIU/ml; Percent Reduction in Edema ([8]; compound given −6 hr): 54%; inhibition in vivo at up to 20 mg/kg ([8]; compound given −6 hr): 51%; EPO (erythropoietin [9]; human EPO ELISA kit (*)): 17.4 mIU/ml |
| O=C(O)CNC(=O)c1ncc2cc(Oc3ccc(F)cc3)ccc2c1O [Compound G, {[7-(4-Fluoro-phenoxy)-4-hydroxy-isoquinoline-3-carbonyl]-amino}-acetic acid] |  | 2.46 | 86.5 pg/mL | 14.4 | 2271.5 pg/mL | 5.1 | 73.4 mIU/ml | 110.8 pg/mL | 2.58 | 5.5 | 34.4 mIU/ml | 123.57 |  | 48% | 270 | EPO (erythropoietin [2]; human EPO ELISA kit (*)): 162 mIU/ml; EPO (erythropoietin [9]; human EPO ELISA kit (*)): 173 mIU/ml |
| O=C(O)CNC(=O)c1ncc2cc(Oc3ccc4c(c3)OCO4)ccc2c1O [Compound O, {[7-(Benzo[1,3]dioxol-5-yloxy)-4-hydroxy-isoquinoline-3-carbonyl]-amino}-acetic acid] | 157 pg/mL | 2.21 | 64 pg/mL | 3.6 | 5235 pg/mL | 14.7 | 97.4 mIU/ml | 46 pg/mL | 1.48 | 7.93 | 149.8 mIU/ml | 11.87 | 83.1 pg/mL |  | 174 | inhibition in vivo at up to 20 mg/kg ([8]; compound given 0 hr): 31% |
| O=C(O)CNC(=O)c1ncc2ccc(Sc3ccccn3)cc2c1O [Compound AB, {[4-Hydroxy-6-(pyridin-2-ylsulfanyl)-isoquinoline-3-carbonyl]-amino}-acetic acid] |  |  |  |  |  |  |  |  |  |  |  |  |  |  |  | VEGF gene expression in brain [1]: 2.1 |
| C#Cc1nc(C(=O)NCC(=O)O)c(O)c2ccsc12 [Compound M, [(7-Ethynyl-4-hydroxy-thieno[2,3-c]pyridine-5-carbonyl)-amino]-acetic acid] | 161.6 pg/mL | 1.31 | 38 pg/mL | 2.0 | 1436 pg/mL | 11.6 | 64.1 mIU/ml | 38 pg/mL | 1.23 | 285 | 57 mIU/ml | 1.26 | 8.8 pg/mL |  | 180 |  |
| O=C(O)CNC(=O)c1nc(Cl)c2ccsc2c1O [Compound L, [(4-Chloro-7-hydroxy-thieno[3,2-c]pyridine-6-carbonyl)-amino]-acetic acid] | 400.3 pg/mL | 0.43 | 13 pg/mL | 3.3 | 4750.0 pg/mL | 4.2 | 11.1 mIU/ml | 41 pg/mL | 1.32 | 5.2 | 98.2 mIU/ml | 11.81 | 82.7 pg/mL | 48% | 14.6 |  |
